In patent publication US20110270151A1, “IMAGE-GUIDED ENERGY DEPOSITION FOR TARGETED DRUG DELIVERY” (The Methodist Hospital Research Institute, priority 2008, published 2011):
Where a name gives a salt, the structure may show the parent alone.

Key:
Hsp70 [1] = settings: cited from earlier work
Hsp70 [2] = settings: cited from earlier work; remark: listed apart in the source
[3] = basic or acidic aqueous solution; cited from earlier work
HSP70 [4] = molecular target: T1, HSP70 (Mus musculus, UniProt Q61696); assay: in vivo analysis of FAM-labeled bifunctional molecule after hind limb heating; design: species or system mice; settings: 20 nmol i.v., about 4 hours post-injection (8 hrs post hyperthermia), dermis dissected
T1 construct: imaging an inducible target using an endogenous protein involved in stress response; from tissue; host or cells: heated right hind limb of live mice
T1 sequence (Q61696 whole entry): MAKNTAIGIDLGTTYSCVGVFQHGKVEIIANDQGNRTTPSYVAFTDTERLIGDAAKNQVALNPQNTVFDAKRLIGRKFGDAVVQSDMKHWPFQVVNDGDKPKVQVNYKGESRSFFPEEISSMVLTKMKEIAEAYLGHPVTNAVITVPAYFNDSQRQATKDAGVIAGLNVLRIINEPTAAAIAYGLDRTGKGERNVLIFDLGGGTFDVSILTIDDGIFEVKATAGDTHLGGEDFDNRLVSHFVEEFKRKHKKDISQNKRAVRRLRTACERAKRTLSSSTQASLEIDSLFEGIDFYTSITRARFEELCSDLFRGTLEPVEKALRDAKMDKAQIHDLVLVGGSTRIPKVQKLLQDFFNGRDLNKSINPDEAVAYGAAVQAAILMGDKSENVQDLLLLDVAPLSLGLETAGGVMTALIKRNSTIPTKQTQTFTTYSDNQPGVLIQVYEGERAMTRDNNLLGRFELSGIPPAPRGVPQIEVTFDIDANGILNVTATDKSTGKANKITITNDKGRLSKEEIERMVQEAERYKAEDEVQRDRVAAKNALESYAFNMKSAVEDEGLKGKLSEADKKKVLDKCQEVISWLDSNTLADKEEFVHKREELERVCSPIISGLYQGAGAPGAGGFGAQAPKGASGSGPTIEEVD
Protocol: As a control, 6-carboxyfluorescein (6-FAM) was administered at the same dose (20 nmol) in the same manner. Due to the high intrinsic autofluorescence of the dermis, experimental mice were sacrificed, the dermis dissected, and imaged on a small animal dedicated optical system (Xenogen/Caliper IVIS-200) using the appropriate excitation/emission filter set.

SMILES | Kd (Hsp70 [1]) | effect on Hsp70 steady state ATPase activity (Hsp70 [2]) | hydrolytic stability [3] | fluorescence in heated limb tissue (HSP70 [4])
N=C(N)NCCCCCCC(=O)N[C@@H](O)C(=O)NCCCCNCCCN (racemic) [Compound 15-DSG, (±)7-[(aminoiminomethyl)amino]-N-[2-[[4-[(3-aminopropyl)amino]butyl]amino]-1-hydroxy-2-oxoethyl]heptanamide trihydrochloride] | 4 µM | stimulates | hydrolyses gradually | 
O=C(O)c1ccc2c(c1)C1(OC2=O)c2ccc(O)cc2Oc2cc(O)ccc21 [Compound 6-FAM, 6-carboxyfluorescein] |  |  |  | minimal level of fluorescence
